Read-outs that look alike come from different tables or passages of the source.
Target: Recombinant human factor D (Homo sapiens (Human), UniProt P00746)
Experiment: Human Complement Factor D Assay: Method 1
Format: biochemical
Settings: Factor D inhibition, Method 1: 10 nM factor D, 1 hour incubation with compound at room temperature, substrate Z-Lys-thiobenzyl, fluorescence readout

Sequence of Recombinant human factor D (P00746 26-253): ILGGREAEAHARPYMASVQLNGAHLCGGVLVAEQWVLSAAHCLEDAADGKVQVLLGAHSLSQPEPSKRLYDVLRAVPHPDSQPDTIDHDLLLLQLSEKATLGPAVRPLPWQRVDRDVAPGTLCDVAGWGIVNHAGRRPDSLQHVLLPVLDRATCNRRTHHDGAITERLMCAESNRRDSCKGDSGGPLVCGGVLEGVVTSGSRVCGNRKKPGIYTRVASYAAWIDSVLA

Question: `NC(=O)c1nn(CC(=O)N2[C@@H]3C[C@@H]3C[C@H]2C(=O)NC2CCCC(c3ccccc3)C2)c2ccccc12` (single isomer, unassigned) [Example 79] was tested. Which IC50 (IC50 (μM)) did it give?
Answer: The IC50 was 0.114 µM.

Question: `NC(=O)c1nn(CC(=O)N2C[C@H](F)C[C@H]2C(=O)N[C@@H]2C[C@H]2c2ccccc2F)c2cnccc12` [Example 40, 1-(2-{(2S,4R)-4-Fluoro-2-[(1R,2S)-2-(2-fluoro-phenyl)-cyclopropylcarbamoyl]-pyrrolidin-1-yl}-2-oxo-ethyl)-1H-pyrazolo[3,4-c]pyridine-3-carboxylic acid amide] was tested. Which IC50 (read-out: IC50) did it give?
Answer: The IC50 was 0.142 µM.

Question: With `NC(=O)c1nn(CC(=O)N2[C@@H]3C[C@@H]3C[C@H]2C(=O)NC2CC2c2ccc(F)cc2F)c2ccccc12` (single isomer, unassigned) [Example 74] as the compound, how does the IC50 (read-out: IC50) read?
Answer: The IC50 was 3.76 µM.

Question: How did the IC50 (read-out: IC50) turn out when `CC(=O)c1nn(CC(=O)N2[C@@H]3C[C@@H]3C[C@H]2C(=O)N[C@H]2C[C@]2(F)c2ccccc2)c2ncccc12` [Example 45, (1R,3S,5R)-2-[2-(3-Acetyl-pyrazolo[3,4-b]pyridin-1-yl)-acetyl]-2-aza-bicyclo[3.1.0] hexane-3-carboxylic acid ((1S,2S)-2-fluoro-2-phenyl-cyclopropyl)-amide] was run?
Answer: The IC50 was 10.4 µM.

Question: `NC(=O)c1nn(CC(=O)N2[C@@H]3C[C@@H]3C[C@H]2C(=O)N[C@H]2C[C@@H]2c2ccccc2Cl)c2cnccc12` [Example 21, 1-(2-{(1R,3S,5R)-3-[(1S,2R)-2-(2-Chloro-phenyl)-cyclopropylcarbamoyl]-2-aza-bicyclo[3.1.0]hex-2-yl}-2-oxo-ethyl)-1H-pyrazolo[3,4-c]pyridine-3-carboxylic acid amide] was tested. Which IC50 (read-out: IC50) did it give?
Answer: Its IC50 is 1.4 µM.

Question: With `CC(=O)c1nn(CC(=O)N2[C@@H]3C[C@@H]3C[C@H]2C(=O)N[C@@]2(C)C[C@@H]2c2ccccc2)c2cnccc12` [Example 23, (1R,3S,5R)-2-[2-(3-Acetyl-pyrazolo[3,4-c]pyridin-1-yl)-acetyl]-2-aza-bicyclo[3.1.0] hexane-3-carboxylic acid ((1S,2R)-1-methyl-2-phenyl-cyclopropyl)-amide] as the compound, how does the IC50 (read-out: IC50) read?
Answer: The IC50 was 13.2 µM.

Question: For `CC(=O)c1nn(CC(=O)N2[C@@H]3C[C@@H]3C[C@H]2C(=O)N[C@@H]2C[C@@]2(F)c2ccccc2)c2cnccc12` [Example 46, (1R,3S,5R)-2-[2-(3-Acetyl-pyrazolo[3,4-c]pyridin-1-yl)-acetyl]-2-aza-bicyclo[3.1.0] hexane-3-carboxylic acid ((1R,2R)-2-fluoro-2-phenyl-cyclopropyl)-amide], which IC50 (read-out: IC50) is on record?
Answer: The IC50 was 0.032 µM.

Question: How did the IC50 (read-out: IC50) turn out when `NC(=O)c1nn(CC(=O)N2[C@@H]3C[C@@H]3C[C@H]2C(=O)N[C@@H]2C[C@H]2c2ccccc2)c2cnccc12` [Example 9, 1-{2-Oxo-2-[(1R,3S,5R)-3-((1R,2S)-2-phenyl-cyclopropylcarbamoyl)-2-aza-bicyclo[3.1.0]hex-2-yl]-ethyl}-1H-pyrazolo[3,4-c]pyridine-3-carboxylic acid amide] was run?
Answer: The IC50 was 0.065 µM.

Question: `CC(=O)c1nn(CC(=O)N2[C@@H]3C[C@@H]3C[C@H]2C(=O)NC2CC(c3ccccc3F)C2)c2ncccc12` (stereo partly drawn) [Example 36, (1R,3S,5R)-2-[2-(3-Acetyl-pyrazolo[3,4-b]pyridin-1-yl)-acetyl]-2-aza-bicyclo[3.1.0] hexane-3-carboxylic acid [3-(2-fluoro-phenyl)-cyclobutyl]-amide] was tested. Which IC50 (read-out: IC50) did it give?
Answer: The IC50 was 0.466 µM.

Question: With `NC(=O)c1nn(CC(=O)N2[C@@H]3C[C@@H]3C[C@H]2C(=O)NC2CC2(F)c2ccccc2F)c2ccccc12` (single isomer, unassigned) [Example 51] as the compound, how does the IC50 (read-out: IC50) read?
Answer: Its IC50 is 0.992 µM.

Question: For `CC(=O)c1nn(CC(=O)N2[C@@H]3C[C@@H]3C[C@H]2C(=O)NC2CC2c2cccc(C(F)(F)F)c2)c2cnccc12` (stereo partly drawn) [Example 33, (1R,3S,5R)-2-[2-(3-Acetyl-pyrazolo[3,4-c]pyridin-1-yl)-acetyl]-2-aza-bicyclo[3.1.0] hexane-3-carboxylic acid [2-(3-trifluoromethyl-phenyl)-cyclopropyl]-amide], which IC50 (read-out: IC50) is on record?
Answer: Its IC50 is 0.55 µM.

Question: For `NC(=O)c1nn(CC(=O)N2C[C@H](F)C[C@H]2C(=O)N[C@@H]2C[C@H]2c2ccccc2)c2ccccc12` [Example 18, 1-{2-[(2S,4R)-4-Fluoro-2-((1R,2S)-2-phenyl-cyclopropylcarbamoyl)-pyrrolidin-1-yl]-2-oxo-ethyl}-1H-indazole-3-carboxylic acid amide], which IC50 (read-out: IC50) is on record?
Answer: Its IC50 is 0.044 µM.

Question: How did the IC50 (read-out: IC50) turn out when `CC(=O)c1nn(CC(=O)N2[C@@H]3C[C@@H]3C[C@H]2C(=O)N[C@H]2C[C@@H]2c2cccc(Cl)c2F)c2ncccc12` [Example 57, (1R,3S,5R)-2-[2-(3-Acetyl-pyrazolo[3,4-b]pyridin-1-yl)-acetyl]-2-aza-bicyclo[3.1.0]hexane-3-carboxylic acid [(1S,2R)-2-(3-chloro-2-fluoro-phenyl)-cyclopropyl]-amide] was run?
Answer: The IC50 was 1.61 µM.

Question: How did the IC50 (read-out: IC50) turn out when `NC(=O)c1nn(CC(=O)N2[C@H](C(=O)N[C@@H]3C[C@H]3c3ccccc3Cl)C[C@@]3(CO)C[C@@H]23)c2ccccc12` [Example 30, 1-(2-{(1R,3S,5S)-3-[(1R,2S)-2-(2-Chloro-phenyl)-cyclopropylcarbamoyl]-5-hydroxymethyl-2-aza-bicyclo[3.1.0]hex-2-yl}-2-oxo-ethyl)-1H-indazole-3-carboxylic acid amide] was run?
Answer: The IC50 was 0.022 µM.

Question: Which IC50 (read-out: IC50) does the source give for `NC(=O)c1nn(CC(=O)N2[C@@H]3C[C@@H]3C[C@H]2C(=O)N[C@@H]2C[C@@]2(F)c2ccccc2)c2ccc(F)cc12` [Example 26, 5-Fluoro-1-{2-[(1R,3S,5R)-3-((1R,2R)-2-fluoro-2-phenyl-cyclopropylcarbamoyl)-2-aza-bicyclo[3.1.0]hex-2-yl]-2-oxo-ethyl}-1H-indazole-3-carboxylic acid amide] here?
Answer: The IC50 was 0.06 µM.

Question: `NC(=O)c1nn(CC(=O)N2[C@@H]3C[C@@H]3C[C@H]2C(=O)N[C@@H]2C[C@H]2c2ccccc2)c2ncccc12` [Example 13, 1-{2-Oxo-2-[(1R,3S,5R)-3-((1R,2S)-2-phenyl-cyclopropylcarbamoyl)-2-aza-bicyclo[3.1.0]hex-2-yl]-ethyl}-1H-pyrazolo[3,4-b]pyridine-3-carboxylic acid amide] was tested. Which IC50 (read-out: IC50) did it give?
Answer: The IC50 was 0.172 µM.

Question: With `CC(=O)c1nn(CC(=O)N2[C@@H]3C[C@@H]3C[C@H]2C(=O)N[C@@H]2C[C@H]2c2ccccc2)c2cnccc12` [Example 5, (1R,3S,5R)-2-[2-(3-Acetyl-pyrazolo[3,4-c]pyridin-1-yl)-acetyl]-2-aza-bicyclo[3.1.0] hexane-3-carboxylic acid ((1R,2S)-2-phenyl-cyclopropyl)-amide] as the compound, how does the IC50 (read-out: IC50) read?
Answer: The IC50 was 0.106 µM.

Question: For `Cc1cc2c(C(N)=O)nn(CC(=O)N3[C@@H]4C[C@@H]4C[C@H]3C(=O)N[C@@H]3C[C@H]3c3ccccc3Cl)c2cn1` [Example 73, 1-(2-{(1R,3S,5R)-3-[(1R,2S)-2-(2-Chloro-phenyl)-cyclopropylcarbamoyl]-2-aza-bicyclo[3.1.0]hex-2-yl}-2-oxo-ethyl)-5-methyl-1H-pyrazolo[3,4-c]pyridine-3-carboxylic acid amide], which IC50 (read-out: IC50) is on record?
Answer: Its IC50 is 0.045 µM.

Question: Which IC50 (read-out: IC50) does the source give for `NC(=O)c1nn(CC(=O)N2C[C@H](F)C[C@H]2C(=O)N[C@@H]2C[C@H]2c2ccc(Cl)cc2)c2cnccc12` [Example 72, 1-(2-{(2S,4R)-2-[(1R,2S)-2-(4-Chloro-phenyl)-cyclopropylcarbamoyl]-4-fluoro-pyrrolidin-1-yl}-2-oxo-ethyl)-1H-pyrazolo[3,4-c]pyridine-3-carboxylic acid amide] here?
Answer: The IC50 was 0.309 µM.

Question: `CCc1cc2c(C(N)=O)nn(CC(=O)N3[C@@H]4C[C@@H]4C[C@H]3C(=O)N[C@@H]3C[C@H]3c3ccccc3Cl)c2cn1` [Example 68, 1-(2-{(1R,3S,5R)-3-[(1R,2S)-2-(2-Chloro-phenyl)-cyclopropylcarbamoyl]-2-aza-bicyclo[3.1.0]hex-2-yl}-2-oxo-ethyl)-5-ethyl-1H-pyrazolo[3,4-c]pyridine-3-carboxylic acid amide] was tested. Which IC50 (read-out: IC50) did it give?
Answer: Its IC50 is 0.037 µM.

Question: For `CC(=O)c1nn(CC(=O)N2[C@@H]3C[C@@H]3C[C@H]2C(=O)N[C@H]2C[C@]2(F)c2ccccc2)c2cnccc12` [Example 47, (1R,3S,5R)-2-[2-(3-Acetyl-pyrazolo[3,4-c]pyridin-1-yl)-acetyl]-2-aza-bicyclo[3.1.0] hexane-3-carboxylic acid ((1S,2S)-2-fluoro-2-phenyl-cyclopropyl)-amide], which IC50 (read-out: IC50) is on record?
Answer: Its IC50 is 0.991 µM.

Question: With `Cc1cc2c(C(N)=O)nn(CC(=O)N3[C@@H]4C[C@@H]4C[C@H]3C(=O)N[C@@H]3C[C@@]3(F)c3ccccc3)c2cn1` [Example 48, 1-{2-[(1R,3S,5R)-3-((1R,2R)-2-Fluoro-2-phenyl-cyclopropylcarbamoyl)-2-aza-bicyclo[3.1.0]hex-2-yl]-2-oxo-ethyl}-5-methyl-1H-pyrazolo[3,4-c]pyridine-3-carboxylic acid amide] as the compound, how does the IC50 (read-out: IC50) read?
Answer: Its IC50 is 0.03 µM.

Question: `CO[C@H]1[C@@H](C(=O)N[C@@H]2C[C@H]2c2ccccc2)N(C(=O)Cn2nc(C(C)=O)c3ccccc32)C[C@@H]1F` [Example 10, (2S,3S,4S)-1-[2-(3-Acetyl-indazol-1-yl)-acetyl]-4-fluoro-3-methoxy-pyrrolidine-2-carboxylic acid ((1R,2S)-2-phenyl-cyclopropyl)-amide] was tested. Which IC50 (read-out: IC50) did it give?
Answer: The IC50 was 0.04 µM.

Question: Which IC50 (read-out: IC50) does the source give for `NC(=O)c1nn(CC(=O)N2C[C@H](F)C[C@H]2C(=O)N[C@@H]2C[C@H]2c2ccccc2)c2ccncc12` [Example 16, 1-{2-[(2S,4R)-4-Fluoro-2-((1R,2S)-2-phenyl-cyclopropylcarbamoyl)-pyrrolidin-1-yl]-2-oxo-ethyl}-1H-pyrazolo[4,3-c]pyridine-3-carboxylic acid amide] here?
Answer: The IC50 was 1.24 µM.

Question: How did the IC50 (read-out: IC50) turn out when `CC(=O)c1nn(CC(=O)N2[C@@H]3C[C@@H]3C[C@H]2C(=O)N[C@H]2C[C@@H]2c2ccccc2)c2ccccc12` [Example 1, (1R,3S,5R)-2-[2-(3-Acetyl-indazol-1-yl)-acetyl]-2-aza-bicyclo[3.1.0]hexane-3-carboxylic acid((1S,2R)-2-phenyl-cyclopropyl)-amide] was run?
Answer: Its IC50 is 0.386 µM.

Question: Which IC50 (read-out: IC50) does the source give for `CC(=O)c1nn(CC(=O)N2[C@H](C(=O)N[C@@H]3C[C@H]3c3ccccc3)C[C@@]3(CO)C[C@@H]23)c2cnccc12` [Example 29, (1R,3S,5S)-2-[2-(3-Acetyl-pyrazolo[3,4-c]pyridin-1-yl)-acetyl]-5-hydroxymethyl-2-aza-bicyclo[3.1.0]hexane-3-carboxylic acid((1R,2S)-2-phenyl-cyclopropyl)-amide] here?
Answer: The IC50 was 0.119 µM.

Question: `NC(=O)c1nn(CC(=O)N2[C@@H]3C[C@@H]3C[C@H]2C(=O)NC2CC2c2ccc(F)cc2F)c2ccccc12` (single isomer, unassigned) [Example 75] was tested. Which IC50 (read-out: IC50) did it give?
Answer: The IC50 was 7.76 µM.

Source: patent publication US9815819B2, “Complement pathway modulators and uses thereof” (priority 2012, dated 2017)
